Data taken from ChEMBL document CHEMBL1201862, “PubChem BioAssay data set” (2004).
Activity calls are given as the source filed them.

Assays:
[1] = target: Alkaline phosphatase, placental type (Homo sapiens, UniProt P05187); assay: human placental alkaline phosphatase inhibition – biochemical, luminescence, confirmation (AID 1512); type: functional
[2] = target: T1, Alkaline phosphatase, tissue-nonspecific isozyme (Homo sapiens, UniProt P05186); assay: potency against alkaline phosphatase TNAP – biochemical, luminescent, dose response, SAR follow-up (AID 1056)
T1 sequence (P05186 whole entry): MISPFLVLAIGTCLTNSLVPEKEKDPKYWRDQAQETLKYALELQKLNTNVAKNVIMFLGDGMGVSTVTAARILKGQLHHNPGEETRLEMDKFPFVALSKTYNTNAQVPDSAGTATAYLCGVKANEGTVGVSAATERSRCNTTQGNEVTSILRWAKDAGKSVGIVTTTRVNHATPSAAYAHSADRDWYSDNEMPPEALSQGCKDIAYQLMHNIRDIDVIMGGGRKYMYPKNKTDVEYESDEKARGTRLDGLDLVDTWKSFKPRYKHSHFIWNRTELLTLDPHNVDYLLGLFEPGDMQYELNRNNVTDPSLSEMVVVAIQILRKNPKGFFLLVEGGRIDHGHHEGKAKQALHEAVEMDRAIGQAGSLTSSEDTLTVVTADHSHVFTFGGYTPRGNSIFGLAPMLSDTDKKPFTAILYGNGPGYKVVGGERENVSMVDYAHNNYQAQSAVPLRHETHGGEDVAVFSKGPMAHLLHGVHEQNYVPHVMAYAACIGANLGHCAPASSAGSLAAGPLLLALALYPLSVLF

[3] = THP-1 cell cytotoxicity, dose response, cytotoxicity control for non-replicating M. tuberculosis project (AID 489025); type: functional
[4] = Vero E6 cell cytotoxicity, dose response, cytotoxicity control for non-replicating M. tuberculosis project, secondary assay (AID 492998); type: functional, VeroE6; conditions: Vero C1008
[5] = target: T2, Heat shock factor protein 1 (Mus musculus, UniProt P38532); assay: enhancement of HSF1-driven luciferase signal – cell-based, NIH3T3, luminescence, dose retest, confirmation (AID 435004); type: functional;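 note: stress induced by proteasome inhibitor MG132 added 30 min after compound; luciferase reporter driven by HSF1 response element in NIH3T3 cells; actives raise luminescence as potentiators of the MG132 stress response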
T2 sequence (P38532 whole entry): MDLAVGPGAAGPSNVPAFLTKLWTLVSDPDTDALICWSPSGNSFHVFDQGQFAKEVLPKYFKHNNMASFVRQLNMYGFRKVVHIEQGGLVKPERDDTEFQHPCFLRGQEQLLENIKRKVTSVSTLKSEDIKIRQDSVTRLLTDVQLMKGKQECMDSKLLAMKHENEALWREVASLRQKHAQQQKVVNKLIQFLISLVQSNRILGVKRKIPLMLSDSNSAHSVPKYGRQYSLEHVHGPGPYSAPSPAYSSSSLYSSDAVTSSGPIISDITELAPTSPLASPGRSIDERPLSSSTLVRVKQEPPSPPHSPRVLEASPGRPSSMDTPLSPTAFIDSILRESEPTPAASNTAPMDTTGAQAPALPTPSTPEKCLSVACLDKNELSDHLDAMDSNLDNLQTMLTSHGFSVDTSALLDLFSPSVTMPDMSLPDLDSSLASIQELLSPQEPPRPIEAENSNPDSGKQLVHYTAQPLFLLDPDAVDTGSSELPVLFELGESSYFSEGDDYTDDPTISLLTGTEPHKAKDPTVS

[6] = cells; type: functional
[7] = test system: HEK293; assay: inhibition of NOD1-driven NF-kB reporter – cell-based, luminescence, uHTS, primary screen (AID 1578); type: functional; conditions: Homo sapiens
[8] = test system: HEK293; assay: cells; type: functional, cell-based; conditions: Homo sapiens
[9] = test system: HEK293; assay: cells; type: functional, cell-based; conditions: Homo sapiens; remark: listed apart in the source
[10] = target: Nucleotide-binding oligomerization domain-containing protein 2 (Homo sapiens, UniProt Q9HC29); assay: inhibition of NOD2-driven NF-kB reporter – cell-based, luminescence, uHTS, HEK293 (AID 1566); type: functional
Nucleotide-binding oligomerization domain-containing protein 2, sequence (Q9HC29 whole entry, the tested form may be a part): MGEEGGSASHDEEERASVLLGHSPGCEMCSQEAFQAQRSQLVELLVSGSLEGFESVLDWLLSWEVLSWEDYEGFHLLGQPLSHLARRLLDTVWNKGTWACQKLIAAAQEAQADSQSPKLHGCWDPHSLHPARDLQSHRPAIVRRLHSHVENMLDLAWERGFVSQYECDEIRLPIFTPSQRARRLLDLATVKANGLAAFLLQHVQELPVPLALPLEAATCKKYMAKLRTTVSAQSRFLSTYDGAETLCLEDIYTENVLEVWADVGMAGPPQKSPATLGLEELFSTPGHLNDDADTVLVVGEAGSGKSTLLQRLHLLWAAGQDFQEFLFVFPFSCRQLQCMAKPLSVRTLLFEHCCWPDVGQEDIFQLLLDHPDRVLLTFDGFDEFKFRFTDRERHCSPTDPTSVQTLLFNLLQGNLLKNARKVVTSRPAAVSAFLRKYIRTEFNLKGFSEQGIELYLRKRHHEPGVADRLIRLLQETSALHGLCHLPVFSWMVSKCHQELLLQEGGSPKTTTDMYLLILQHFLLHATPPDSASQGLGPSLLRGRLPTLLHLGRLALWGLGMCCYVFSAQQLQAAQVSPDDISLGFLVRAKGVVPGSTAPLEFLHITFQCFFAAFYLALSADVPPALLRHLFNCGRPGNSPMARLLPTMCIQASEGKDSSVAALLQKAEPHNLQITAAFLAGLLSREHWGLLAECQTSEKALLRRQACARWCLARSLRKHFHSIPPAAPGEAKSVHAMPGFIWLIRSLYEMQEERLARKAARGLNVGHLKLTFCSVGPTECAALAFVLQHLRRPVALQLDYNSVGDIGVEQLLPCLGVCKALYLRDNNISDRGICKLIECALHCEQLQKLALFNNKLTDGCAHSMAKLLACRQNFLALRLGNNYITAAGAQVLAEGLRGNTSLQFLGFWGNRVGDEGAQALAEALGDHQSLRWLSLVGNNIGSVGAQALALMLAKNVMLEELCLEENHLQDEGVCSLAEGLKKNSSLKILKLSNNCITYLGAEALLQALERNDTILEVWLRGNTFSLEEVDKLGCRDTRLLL

[11] = test system: HEK293; assay: NOD2 signaling inhibitors in MDP-stimulated cells, cell-based, uHTS, luminescence (AID 2001); type: functional; conditions: Homo sapiens
[12] = test system: HEK293; assay: cells; type: functional, cell-based; conditions: Homo sapiens; remark: listed apart in the source
[13] = viability of PTEN-deleted HCT116 cells – cell-based, HCT116 PTEN knockout, dose response (AID 1047); type: functional;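 note: HCT116 colon tumor cells with PTEN knocked out; cells exposed to compound for 60 hours before readout; potency for loss of cell viability measured by luminescence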
[14] = viability of HCT116 lacking mutant beta-catenin – cell-based, human colon tumor, dose response (AID 1045); type: functional;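 note: HCT116 colon tumor cells with beta catenin knocked out; cells exposed to compound for 60 hours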
[15] = target: T3, Replicative DNA helicase DnaB (Mycobacterium tuberculosis, UniProt P9WMR3); assay: DnaB intein splicing inhibitors, dose response, biochemical, cell-free fluorescence (AID 449749); type: functional
T3 sequence (P9WMR3 whole entry): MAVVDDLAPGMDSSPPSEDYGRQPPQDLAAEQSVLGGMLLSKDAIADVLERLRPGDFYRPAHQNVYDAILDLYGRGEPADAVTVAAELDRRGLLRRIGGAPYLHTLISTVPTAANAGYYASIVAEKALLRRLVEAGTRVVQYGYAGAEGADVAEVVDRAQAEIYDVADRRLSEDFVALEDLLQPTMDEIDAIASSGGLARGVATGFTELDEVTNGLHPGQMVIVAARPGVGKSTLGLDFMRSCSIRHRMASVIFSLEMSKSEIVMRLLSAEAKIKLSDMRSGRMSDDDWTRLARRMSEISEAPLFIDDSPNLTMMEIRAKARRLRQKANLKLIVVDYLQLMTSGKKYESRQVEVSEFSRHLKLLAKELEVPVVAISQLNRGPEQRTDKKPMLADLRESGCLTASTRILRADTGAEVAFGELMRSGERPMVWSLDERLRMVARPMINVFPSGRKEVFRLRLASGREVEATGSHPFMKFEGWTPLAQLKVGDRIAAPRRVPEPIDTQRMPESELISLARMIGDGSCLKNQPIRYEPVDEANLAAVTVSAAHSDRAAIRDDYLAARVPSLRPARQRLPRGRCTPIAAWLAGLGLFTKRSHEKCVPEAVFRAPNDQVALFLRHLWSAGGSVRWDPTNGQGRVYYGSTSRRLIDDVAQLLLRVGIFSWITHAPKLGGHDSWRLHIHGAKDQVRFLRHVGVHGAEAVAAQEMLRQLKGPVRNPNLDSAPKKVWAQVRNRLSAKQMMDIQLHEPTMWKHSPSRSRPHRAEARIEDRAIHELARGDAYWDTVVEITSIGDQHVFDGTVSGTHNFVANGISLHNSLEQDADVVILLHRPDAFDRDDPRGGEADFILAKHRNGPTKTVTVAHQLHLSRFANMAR

[16] = target: Heat shock protein HSP 90-alpha (Homo sapiens, UniProt P07900); type: functional, organism-based
[17] = target: T4, Protein RecA (Mycobacterium tuberculosis, UniProt P9WHJ3); assay: Fluorescence Cell-Free Homogeneous Dose Retest to Identify Inhibitors of RecA-Intein Splicing Activity. [Related pubchem assays (depositor defined):AID2097, AID2223, AID489010, AID492950]; type: functional
T4 sequence (P9WHJ3 whole entry): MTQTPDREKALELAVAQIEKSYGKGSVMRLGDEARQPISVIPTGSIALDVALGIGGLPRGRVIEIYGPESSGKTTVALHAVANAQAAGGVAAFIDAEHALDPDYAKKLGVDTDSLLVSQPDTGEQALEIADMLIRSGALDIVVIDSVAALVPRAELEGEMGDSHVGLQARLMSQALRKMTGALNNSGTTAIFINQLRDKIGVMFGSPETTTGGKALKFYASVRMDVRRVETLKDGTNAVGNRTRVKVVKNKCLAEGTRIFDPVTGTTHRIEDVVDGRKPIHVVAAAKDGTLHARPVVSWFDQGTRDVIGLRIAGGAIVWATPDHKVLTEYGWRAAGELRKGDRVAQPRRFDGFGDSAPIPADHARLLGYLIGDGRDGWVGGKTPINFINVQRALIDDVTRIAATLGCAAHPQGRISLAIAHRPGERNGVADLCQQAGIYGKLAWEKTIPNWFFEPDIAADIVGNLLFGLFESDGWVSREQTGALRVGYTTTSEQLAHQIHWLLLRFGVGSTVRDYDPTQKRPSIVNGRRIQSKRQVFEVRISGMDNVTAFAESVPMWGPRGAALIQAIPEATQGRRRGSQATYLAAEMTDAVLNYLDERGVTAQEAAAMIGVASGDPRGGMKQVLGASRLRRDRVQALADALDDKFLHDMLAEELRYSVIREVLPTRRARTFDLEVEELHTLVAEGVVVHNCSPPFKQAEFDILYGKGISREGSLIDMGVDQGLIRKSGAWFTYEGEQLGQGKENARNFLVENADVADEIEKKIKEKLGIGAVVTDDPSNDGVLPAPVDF

[18] = target: T5, COUP transcription factor 2 (Homo sapiens, UniProt P24468); assay: Luminescence-based cell-based high throughput dose response assay to identify inhibitors of COUP-TFII (NR2F2).; type: functional;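 note: HEK293 cells transiently cotransfected with COUP-TFII expression vector and reporter; luciferase reporter luminescence driven by COUP-TFII from the pX2-168 reporter plasmid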
T5 sequence (P24468 whole entry): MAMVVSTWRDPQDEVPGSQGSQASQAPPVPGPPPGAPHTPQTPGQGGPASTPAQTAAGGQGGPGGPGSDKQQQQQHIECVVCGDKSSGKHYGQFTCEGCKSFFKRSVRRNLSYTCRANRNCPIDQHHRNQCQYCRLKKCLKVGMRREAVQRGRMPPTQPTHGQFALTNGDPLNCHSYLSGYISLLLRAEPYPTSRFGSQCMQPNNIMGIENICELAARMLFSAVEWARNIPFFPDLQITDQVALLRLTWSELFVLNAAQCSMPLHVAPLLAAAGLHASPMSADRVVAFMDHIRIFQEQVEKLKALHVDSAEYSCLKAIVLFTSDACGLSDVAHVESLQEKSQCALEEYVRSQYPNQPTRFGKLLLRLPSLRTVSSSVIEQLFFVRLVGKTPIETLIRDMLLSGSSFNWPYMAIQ

[19] = target: Glyceraldehyde-3-phosphate dehydrogenase (Homo sapiens, UniProt P04406)
Glyceraldehyde-3-phosphate dehydrogenase, sequence (P04406 whole entry): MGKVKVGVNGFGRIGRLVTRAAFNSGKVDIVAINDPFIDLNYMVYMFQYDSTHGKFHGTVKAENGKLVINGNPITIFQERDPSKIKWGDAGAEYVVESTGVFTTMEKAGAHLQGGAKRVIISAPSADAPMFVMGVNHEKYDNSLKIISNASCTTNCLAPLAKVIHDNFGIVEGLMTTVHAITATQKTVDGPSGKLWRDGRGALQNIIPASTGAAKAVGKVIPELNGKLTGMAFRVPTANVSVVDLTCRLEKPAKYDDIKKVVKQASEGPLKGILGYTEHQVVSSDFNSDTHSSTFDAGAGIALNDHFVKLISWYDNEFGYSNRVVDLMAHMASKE

Alkaline phosphatase, placental type, sequence (P05187 whole entry): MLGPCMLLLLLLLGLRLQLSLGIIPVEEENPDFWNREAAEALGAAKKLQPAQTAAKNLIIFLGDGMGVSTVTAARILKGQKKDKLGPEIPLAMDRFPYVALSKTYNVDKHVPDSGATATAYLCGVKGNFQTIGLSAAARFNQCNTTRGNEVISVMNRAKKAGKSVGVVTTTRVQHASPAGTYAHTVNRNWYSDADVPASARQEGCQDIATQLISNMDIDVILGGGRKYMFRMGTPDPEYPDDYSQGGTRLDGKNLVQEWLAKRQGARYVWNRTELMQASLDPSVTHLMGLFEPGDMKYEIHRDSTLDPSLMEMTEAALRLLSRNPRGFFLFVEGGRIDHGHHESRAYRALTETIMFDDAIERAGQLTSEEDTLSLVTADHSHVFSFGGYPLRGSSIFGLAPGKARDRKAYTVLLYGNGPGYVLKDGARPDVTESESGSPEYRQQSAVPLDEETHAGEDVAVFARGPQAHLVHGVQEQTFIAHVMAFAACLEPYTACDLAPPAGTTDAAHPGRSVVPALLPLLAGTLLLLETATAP

Compound	IC50 [1]	IC50 [2]	CC50 [3]	CC50 [4]	IC50 [6]	EC50 [7]	IC50 [8]	IC50 [9]	EC50 [10]	IC50 [11]	IC50 [12]	also measured
CCc1nc(SCC(=O)c2ccc(O)cc2O)n[nH]1	> 100 µM (inactive)	> 100 µM (inactive)	–	–	–	–	–	–	–	–	–	–
COc1ccc(C(=O)Cn2c(C)nc([N+](=O)[O-])c2Br)cc1	–	–	> 40 µM (active)	> 20 µM (active)	12.1 µM (active)	–	–	–	–	–	–	EC50 [5]: 19.8 µM (active)
CC(C)CC(=O)/C(=C\c1ccc(Cl)cc1Cl)n1cncn1	–	–	–	–	–	> 20 µM (inactive)	4.25 µM (active)	9.81 µM (active)	> 20 µM (inactive)	7.85 µM (active)	> 20 µM (inactive)	EC50 [13]: 4.72 µM (active); EC50 [14]: 4.31 µM (active); AC50 [15]: 11.8 µM (active); AC50 [16]: 2.04 µM (active); EC50 [17]: 11.2 µM (active)
Cc1nc2c(-c3ccc(Cl)cc3)cnn2c(N)c1-c1ccc(F)cc1	–	–	–	–	–	> 20 µM (inactive)	2.34 µM (active)	> 20 µM (inactive)	> 20 µM (inactive)	> 20 µM (inactive)	> 20 µM (inactive)	IC50 [18]: > 85.4 µM (inactive)
CCc1ccc(-c2ccc(-c3nc(N)nn3-c3ccccc3)cc2)cc1	> 100 µM (inactive)	> 100 µM (inactive)	–	–	–	–	–	–	–	–	–	IC50 [19]: > 100 µM (not active)
O=C(N/N=C\c1ccc([N+](=O)[O-])s1)C1COc2ccccc2O1 (centres undefined)	–	–	22.6 µM (active)	13.3 µM (active)	5.68 µM (active)	9.04 µM (active)	19.1 µM (active)	> 20 µM (inactive)	–	16.2 µM (inactive)	–	–
